# According to patent US20160367578A1, “METHODS AND COMPOSITIONS FOR ERADICATING LEUKEMIC CELLS” (priority 2013, published 2016):
# Assays:
# [1] = system: Primary MLL-AF9 LKS acute myeloid leukemia cells; experiment: Co-culture viability with enoxolone, leukemia cells (GFP+/7AAD-); assay type: cell-based; conditions: 20 hours, 0, 5, 20, 50, 100 and 200 μM
# Description: (§1) Primary MLL-AF9^LKS acute myeloid leukemia cells (red bars) were co-cultured with normal BM mononuclear cells (blue bars). Cells in co-culture were exposed to enoxolone for 20 hours (at 0, 5, 20, 50, 100 and 200 μM) and then cell viability was analyzed by flow cytometry (live leukemia cells=GFP+/7AAD−; live normal cells=GFP−/7AAD−).
# normal bone marrow cells = experiment: Co-culture viability with enoxolone, normal bone marrow cells (myeloid vs. non-myeloid); assay type: cell-based; parameters: dose or concentration left out as unconfirmed; conditions: […] μM, 20 hours
# Description: as §1
# Cells in co-culture were exposed to enoxolone for 20 hours (at 0, 5, 20, 50, 100 and 200 μM).
smiles,measurement,setting,value
"CC1(C)[C@@H](O)CC[C@]2(C)[C@H]3C(=O)C=C4[C@@H]5C[C@@](C)(C(=O)O)CC[C@]5(C)CC[C@@]4(C)[C@]3(C)CC[C@@H]12 [enoxolone, 18β-glycyrrhetinic acid]",leukemia cell eradication in co-culture with normal BM mononuclear cells,[1],selective leukemia cell eradication
same,toxicity to normal non-myeloid cells,normal bone marrow cells,toxic to normal non-myeloid cells
